Assay results published in publication PMC12580772, “A First-in-Human Study of ATM Inhibitor Lartesertib as Monotherapy in Patients with Advanced Solid Tumors” (Clinical Cancer Research, 2025).
“Also recorded” adds a separate entry of the source.

Assays:
[1] = PK analysis of lartesertib in plasma (non-compartmental); assay type: in vivo, human
Protocol: The PK of lartesertib was characterized during dose escalation using an intensive PK sample collection schedule. Blood samples were collected at multiple timepoints during Cycle 1, including on Day 1 (pre-dose at 0 hours and post-dose at 0.5, 1, 2, 3, 4, 6, 8, and 12 hours) and Day 8 (pre-dose at 0 hours and post-dose at 1, 2, 3, 4, 6, 8, and 12 hours). PK parameters were calculated from individual plasma concentration–time data using non-compartmental methods.

[2] = system: γ-H2AX; assay: PD analysis: γ-H2AX in CD45+ lymphocytes after ex vivo bleomycin stimulation, flow cytometry; design: species or system human; conditions: 2, 4, 6 hours on Day 1, sustained Day 2 at 2 to 4 hours, all four DLs
Protocol: The PD analyses in blood were conducted using samples collected during Cycle 1 at the following time points: Day 1, pre-dose, and post-dose at 2, 4, and 6 hours; Day 2 at pre-dose and post-dose at 2 to 4 hours; and Day 22 at pre-dose and post-dose at 2 and 4 hours. These samples were analyzed to assess levels of the PD biomarker, γ-H2AX, a phosphorylated histone variant known to represent an early and sensitive marker of DSB response ([18]). Each sample was stimulated ex vivo with bleomycin, a DNA DSB inducer that activates ATM function, or with phosphate-buffered saline as a negative control. γ-H2AX was subsequently measured in the CD45^+ lymphocyte fraction by flow cytometry.

[3] = system: advanced solid tumors; assay: Efficacy: tumor response and PFS by RECIST version 1.1; assay type: in vivo, human
From the text: The primary endpoints were the occurrence of DLTs, adverse events (AE), and treatment-related and treatment-emergent AEs (TEAE), along with the occurrence of clinically significant changes in vital signs, laboratory parameters, and 12-lead electrocardiogram findings. The secondary endpoints included PK parameters of lartesertib in plasma after single and multiple doses; establishment of the recommended dose for expansion based on safety, PK, and PD data; absolute and relative changes overtime from baseline in ATM pathway readouts assessed by flow cytometry and immunohistochemistry; and objective response, duration of response, and progression-free survival (PFS) according to the RECIST version 1.1, as assessed by the investigator. Exploratory endpoints included the correlation of baseline and on-treatment biomarkers with response to lartesertib treatment as well as relative changes in total blood cell count, immune cells, and circulatory factors during exposure to lartesertib.
For the efficacy analysis, the proportion of patients with objective response, defined as radiologic complete response (CR) + partial response, was tabulated, and the 95% confidence interval (CI) was estimated using the Clopper–Pearson method. PFS was estimated using the Kaplan–Meier method. The median PFS time and rate estimates at 3, 6, and 12 months, as well as every 6 months thereafter, were also summarized.

[4] = system: human squamous cell carcinoma of the head and neck FaDu xenograft; design: method as in PMID 35405736; conditions: in combination with radiation; cited from earlier work
[5] = system: acute myeloid leukemia model Mv4.11; design: method as in PMID 37079339; conditions: combination with the ATR inhibitor gartisertib; cited from earlier work

COc1cc2ncc3c(c2cc1-c1cn(C)nc1C)n(-c1c(F)cncc1OC)c(=O)n3C [lartesertib]
Exposure versus dose ([1]; 100-400 mg once daily): increased in a dose-related manner; also recorded: increased in a dose-dependent manner | half-life ([1]; human, plasma, oral, across 100-400 mg once daily, Day 1 and Day 8, read-out: Geometric mean elimination half-life (t1/2)): 5 to 7 h | Tmax ([1]; human, plasma, oral, across 100-400 mg once daily, Day 1 and Day 8, read-out: Median time to reach maximum observed plasma concentration (tmax)): 1 to 2 h | γ-H2AX target inhibition over time [2]: trend of increasing lartesertib target inhibition | Best overall response: Non-complete response/non-progressive disease ([3]; 100 mg n = 2): 1 (50.0) n (%) | Best overall response: Not evaluable ([3]; 100 mg n = 2): 1 (50.0) n (%) | Best overall response: Progressive disease ([3]; 100 mg n = 2): 0 (0.0) n (%) | Best overall response: Stable disease ([3]; 100 mg n = 2): 0 (0.0) n (%) | Progressive disease/Deaths (PFS events) ([3]; 100 mg n = 2): 0 (0.0) n (%) | PFS, median (min, max) ([3]; 100 mg n = 2, NC, noncalculable): NC (1.2,4.0) | Best overall response: Non-complete response/non-progressive disease ([3]; 200 mg n = 7): 0 (0.0) n (%) | Best overall response: Not evaluable ([3]; 200 mg n = 7): 2 (28.6) n (%) | Best overall response: Progressive disease ([3]; 200 mg n = 7): 5 (71.4) n (%) | Best overall response: Stable disease ([3]; 200 mg n = 7): 0 (0.0) n (%) | PFS, median (min, max) ([3]; 200 mg n = 7): 1.1 (0.0, 1.6) months | Progressive disease/Deaths (PFS events) ([3]; 200 mg n = 7): 6 (85.7) n (%) | Best overall response: Non-complete response/non-progressive disease ([3]; 300 mg n = 9): 0 (0.0) n (%) | Best overall response: Not evaluable ([3]; 300 mg n = 9): 2 (22.2) n (%) | Best overall response: Progressive disease ([3]; 300 mg n = 9): 6 (66.7) n (%) | Best overall response: Stable disease ([3]; 300 mg n = 9): 1 (11.1) n (%) | PFS, median (min, max) ([3]; 300 mg n = 9): 1.3 (0.0, 4.1) months | Progressive disease/Deaths (PFS events) ([3]; 300 mg n = 9): 7 (77.8) n (%) | Best overall response: Non-complete response/non-progressive disease ([3]; 400 mg n = 4): 0 (0.0) n (%) | Best overall response: Not evaluable ([3]; 400 mg n = 4): 2 (50.0) n (%) | Best overall response: Progressive disease ([3]; 400 mg n = 4): 1 (25.0) n (%) | Progressive disease/Deaths (PFS events) ([3]; 400 mg n = 4): 1 (25.0) n (%) | PFS, median (min, max) ([3]; 400 mg n = 4, NC, noncalculable): NC (0.0, 2.8) | Best overall response: Non-complete response/non-progressive disease ([3]; Total N = 22): 1 (4.5) n (%) | Best overall response: Not evaluable ([3]; Total N = 22): 7 (31.8) n (%) | Best overall response: Progressive disease ([3]; Total N = 22): 12 (54.5) n (%) | Best overall response: Stable disease ([3]; Total N = 22): 2 (9.1) n (%) | PFS, median (min, max) ([3]; Total N = 22): 1.3 (0.0, 4.1) months | Progressive disease/Deaths (PFS events) ([3]; Total N = 22): 14 (63.6) n (%) | Median PFS ([3]; all patients, Kaplan–Meier): 1.3 (95% CI, 0.99–1.58) months | Best overall response stable disease ([3]; of 22 patients): 9.1% | Progressive disease ([3]; of 22 patients): 54.5% | Non-CR/non–progressive disease ([3]; of 22 patients, prostate gland cancer): 4.5% | Duration of stable disease ([3]; patient with nasopharyngeal cancer): 120 days | Antitumor response [4]: significant dose-dependent antitumor responses | Tumor growth [5]: almost complete tumor regression
